14 molecules from PubChem BioAssay AID248 (DTP/NCI, 2004) can be followed below.

The assay concerns L1210 leukemia ip in BDF1 mice, survival T/C. As to the kind of experiment: NCI In Vivo Anticancer Drug Screen. Data for tumor model L1210 Leukemia (intraperitoneal) in B6D2F1 (BDF1) mice. Conditions: endpoint: mean survival time, higher = longer survival. In outline: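 Ratio derived from survival: compound-dosed mice over vehicle-dosed mice, all bearing a transplantable tumor.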

[1] abbreviates: dose: 100.0 mg/kg/injection, schedule: Q04DX003 (ip), vehicle: Klucel (hydroxypropylcellulose) (HPC).
The mark [2] stands for this setting: dose: 200.0 mg/kg/injection, schedule: Q04DX003 (ip), vehicle: Klucel (hydroxypropylcellulose) (HPC).
The mark [3] stands for this setting: dose: 400.0 mg/kg/injection, schedule: Q04DX003 (ip), vehicle: Klucel (hydroxypropylcellulose) (HPC).
The mark [4] stands for this setting: dose: 100.0 mg/kg/injection, schedule: Q04DX002 (ip), vehicle: Klucel (hydroxypropylcellulose) (HPC).
The mark [5] stands for this setting: dose: 200.0 mg/kg/injection, schedule: Q04DX002 (ip), vehicle: Klucel (hydroxypropylcellulose) (HPC).
Setting [6] is: dose: 50.0 mg/kg/injection, schedule: Q01DX009 (ip), vehicle: saline with Tween-80.
The mark [7] stands for this setting: dose: 100.0 mg/kg/injection, schedule: Q01DX009 (ip), vehicle: saline with Tween-80.

Inconclusive results and toxic doses are left out.

For the molecule `COc1cc2c(cc1OC)C1CNC(=O)C1C(c1ccccc1)C2` (stereo unspecified), the T/C reads like this: (dose: 50.0 mg/kg/injection, schedule: Q04DX003 (ip), vehicle: Klucel (hydroxypropylcellulose) (HPC)) 103 % of control; (dose: 100.0 mg/kg/injection, schedule: Q01DX009 (ip), vehicle: Klucel (hydroxypropylcellulose) (HPC)) 100 % of control; under setting [1], 98 % of control; (dose: 200.0 mg/kg/injection, schedule: Q01DX009 (ip), vehicle: Klucel (hydroxypropylcellulose) (HPC)) 102 % of control; under setting [2], 95 % of control; (dose: 400.0 mg/kg/injection, schedule: Q01DX009 (ip), vehicle: Klucel (hydroxypropylcellulose) (HPC)) 94 % of control. The T/C under setting [3] was 98 % of control.
Turning to `O=C(OCC1OC(n2c(=O)[nH]c(=O)c3ncsc32)C(OC(=O)c2ccccc2)C1OC(=O)c1ccccc1)c1ccccc1` (stereo unspecified), the T/C (dose: 100.0 mg/kg/injection, schedule: Q01DX005 (ip), vehicle: saline) was 95 % of control and the T/C (dose: 200.0 mg/kg/injection, schedule: Q01DX005 (ip), vehicle: saline) was 101 % of control.
In the case of `NC(=O)CN1C(=O)C2C3C=CC(C3)C2C1=O` (stereo unspecified), the T/C reads like this: (dose: 100.0 mg/kg/injection, schedule: Q04DX003 (ip), vehicle: saline with Tween-80) 97 % of control; (dose: 200.0 mg/kg/injection, schedule: Q04DX003 (ip), vehicle: saline with Tween-80) 109 % of control; (dose: 400.0 mg/kg/injection, schedule: Q04DX003 (ip), vehicle: saline with Tween-80) 97 % of control.
Turning to `CN(C)C1(Cc2ccccc2)c2ccccc2-c2ccccc21`, the T/C was 103 % of control (dose: 50.0 mg/kg/injection, schedule: Q04DX002 (ip), vehicle: Klucel (hydroxypropylcellulose) (HPC)); 106 % of control under setting [4]; 95 % of control under setting [5].
Regarding `COc1ccc(CNc2ncccn2)cc1`, the T/C under setting [1] is 102 % of control, the T/C under setting [2] is 102 % of control and the T/C under setting [3] is 107 % of control.
In the case of `O=C(O)c1cccc(CCl)c1`, the T/C (dose: 100.0 mg/kg/injection, schedule: Q04DX002 (ip), vehicle: saline with Tween-80) was 95 % of control.
`COc1cc(C=Nc2cc(Cl)c(Cl)c(Cl)c2)ccc1N(CCCl)CCCl`: the T/C reads like this: (dose: 15.0 mg/kg/injection, schedule: Q01DX001 (ip), vehicle: carboxymethylcellulose (CMC)) 123 % of control; (dose: 30.0 mg/kg/injection, schedule: Q01DX001 (ip), vehicle: carboxymethylcellulose (CMC)) 121 % of control.
Consider `CC(=O)N1C(CO)C(O)C(O)C1n1cnc2c(N)ncnc21` (stereo unspecified), for which the T/C is 106 % of control (dose: 100.0 mg/kg/injection, schedule: Q01DX001 (ip), vehicle: saline); 96 % of control (dose: 200.0 mg/kg/injection, schedule: Q01DX001 (ip), vehicle: saline); 96 % of control (dose: 400.0 mg/kg/injection, schedule: Q01DX001 (ip), vehicle: saline).
As for `C/C=C/C(=O)OC`, the T/C (dose: 100.0 mg/kg/injection, schedule: Q01DX009 (ip), vehicle: saline) was 101 % of control; the T/C (dose: 200.0 mg/kg/injection, schedule: Q01DX009 (ip), vehicle: saline) is 102 % of control; the T/C (dose: 400.0 mg/kg/injection, schedule: Q01DX009 (ip), vehicle: saline) was 104 % of control.
Take `O=C1OC(c2ccccc2)(c2ccccc2)c2sccc21`: the T/C under setting [6] is 91 % of control; the T/C under setting [7] was 102 % of control; the T/C (dose: 200.0 mg/kg/injection, schedule: Q01DX009 (ip), vehicle: saline with Tween-80) is 94 % of control.
Consider `CC(C)P(CP(=S)(c1ccccc1)c1ccccc1)c1ccccc1` (stereo unspecified), for which the T/C is, setting by setting: (dose: 100.0 mg/kg/injection, schedule: Q04DX003 (ip), vehicle: carboxymethylcellulose (CMC)) 98 % of control; (dose: 200.0 mg/kg/injection, schedule: Q04DX003 (ip), vehicle: carboxymethylcellulose (CMC)) 100 % of control; (dose: 400.0 mg/kg/injection, schedule: Q04DX003 (ip), vehicle: carboxymethylcellulose (CMC)) 93 % of control.
As for `COC1=CC(=O)C(C2CC(=O)c3c(O)cc(O)cc3O2)=CC1=O` (stereo unspecified), the T/C (dose: 25.0 mg/kg/injection, schedule: Q01DX009 (ip), vehicle: saline with Tween-80) was 92 % of control; the T/C under setting [6] was 98 % of control; the T/C under setting [7] is 103 % of control.
For `Cc1cccc(NC(=O)c2c(Cl)c(Cl)c(Cl)c(Cl)c2C(=O)O)c1C`, the T/C was 91 % of control under setting [4] and 100 % of control under setting [5].
In the case of `C#CCNc1ccc(C(=O)OCC)cc1`, the T/C was 99 % of control (dose: 100.0 mg/kg/injection, schedule: Q04DX002 (ip), vehicle: gum acacia); 108 % of control (dose: 200.0 mg/kg/injection, schedule: Q04DX002 (ip), vehicle: gum acacia); 92 % of control (dose: 400.0 mg/kg/injection, schedule: Q04DX002 (ip), vehicle: gum acacia).
